Source: patent US20180194762A1 (Pharmacyclics LLC, priority 2017, published 2018)
pIC50: −log10 of the molar value. Read-outs that look alike come from different tables or passages of the source.

What was measured:
Format in all cases: biochemical
[1] = target: T1, TEC (Homo sapiens, UniProt P42680); assay: Inhibition of a panel of kinases (in vitro HotSpot kinase assay, 33P-ATP, 1 μM ATP); conditions: for pIC50: HotSpot kinase assay, 1 μM ATP; for TEC/Btk: ratio of TEC IC50 to Btk IC50 (selectivity)
T1 sequence (P42680 1-631): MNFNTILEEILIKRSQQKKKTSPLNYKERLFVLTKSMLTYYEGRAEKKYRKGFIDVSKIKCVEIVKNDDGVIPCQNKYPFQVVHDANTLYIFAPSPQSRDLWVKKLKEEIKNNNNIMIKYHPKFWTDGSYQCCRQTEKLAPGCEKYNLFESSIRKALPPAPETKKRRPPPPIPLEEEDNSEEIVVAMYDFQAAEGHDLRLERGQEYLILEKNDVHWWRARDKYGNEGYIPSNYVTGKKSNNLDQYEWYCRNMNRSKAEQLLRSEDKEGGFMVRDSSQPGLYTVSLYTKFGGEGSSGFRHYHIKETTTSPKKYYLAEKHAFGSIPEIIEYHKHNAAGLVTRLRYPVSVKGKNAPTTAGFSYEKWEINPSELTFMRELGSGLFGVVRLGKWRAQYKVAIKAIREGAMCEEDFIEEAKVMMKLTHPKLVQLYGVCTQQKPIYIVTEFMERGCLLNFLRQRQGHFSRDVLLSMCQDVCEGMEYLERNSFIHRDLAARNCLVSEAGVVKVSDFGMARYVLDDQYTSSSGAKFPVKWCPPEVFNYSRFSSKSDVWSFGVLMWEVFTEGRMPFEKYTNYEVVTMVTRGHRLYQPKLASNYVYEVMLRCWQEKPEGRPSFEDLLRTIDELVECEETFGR
Procedure, shortened: (§1)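 Purified kinase enzymes were incubated with an appropriate substrate and 33P-labelled ATP at 1 μM ATP. Inhibition was measured radiometrically from incorporation of the 33P label.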

[2] = target: T2, panel of kinases (Homo sapiens, UniProt P51813); assay: Inhibition of a panel of kinases (in vitro HotSpot kinase assay, 33P-ATP, 1 μM ATP), other kinases; conditions: BMX wild-type, read-out: BMX-WT IC50
T2 sequence (P51813 1-675): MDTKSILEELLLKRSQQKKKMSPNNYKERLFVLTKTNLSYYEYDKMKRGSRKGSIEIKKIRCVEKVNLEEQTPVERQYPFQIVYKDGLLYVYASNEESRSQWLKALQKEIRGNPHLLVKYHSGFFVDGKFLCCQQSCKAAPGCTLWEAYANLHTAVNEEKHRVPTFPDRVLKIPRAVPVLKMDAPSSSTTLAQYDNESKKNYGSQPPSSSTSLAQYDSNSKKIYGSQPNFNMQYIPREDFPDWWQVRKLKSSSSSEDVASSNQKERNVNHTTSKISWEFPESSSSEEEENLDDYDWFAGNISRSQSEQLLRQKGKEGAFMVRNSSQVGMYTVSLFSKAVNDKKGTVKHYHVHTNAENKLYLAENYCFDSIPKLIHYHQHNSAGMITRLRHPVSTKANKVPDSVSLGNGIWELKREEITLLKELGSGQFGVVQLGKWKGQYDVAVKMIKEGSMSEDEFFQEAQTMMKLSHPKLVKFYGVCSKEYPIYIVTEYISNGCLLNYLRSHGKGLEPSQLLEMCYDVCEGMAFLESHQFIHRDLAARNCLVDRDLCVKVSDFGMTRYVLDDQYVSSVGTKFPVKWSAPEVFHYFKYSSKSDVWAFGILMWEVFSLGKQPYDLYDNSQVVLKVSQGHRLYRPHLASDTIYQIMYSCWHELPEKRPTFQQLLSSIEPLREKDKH
Procedure, shortened: as §1

[3] = target: T3, Btk (Homo sapiens, UniProt Q06187); assay: Btk in vitro inhibitory activity (one of Method A TR-FRET, Method B electrophoretic mobility shift, Method C radiometric filter binding)
T3 construct: purified from insect cells as a full-length construct containing a N-terminal 6X-His tag; His6 (N); made in house; host or cells: insect cells (Method C)
T3 sequence (Q06187 whole entry): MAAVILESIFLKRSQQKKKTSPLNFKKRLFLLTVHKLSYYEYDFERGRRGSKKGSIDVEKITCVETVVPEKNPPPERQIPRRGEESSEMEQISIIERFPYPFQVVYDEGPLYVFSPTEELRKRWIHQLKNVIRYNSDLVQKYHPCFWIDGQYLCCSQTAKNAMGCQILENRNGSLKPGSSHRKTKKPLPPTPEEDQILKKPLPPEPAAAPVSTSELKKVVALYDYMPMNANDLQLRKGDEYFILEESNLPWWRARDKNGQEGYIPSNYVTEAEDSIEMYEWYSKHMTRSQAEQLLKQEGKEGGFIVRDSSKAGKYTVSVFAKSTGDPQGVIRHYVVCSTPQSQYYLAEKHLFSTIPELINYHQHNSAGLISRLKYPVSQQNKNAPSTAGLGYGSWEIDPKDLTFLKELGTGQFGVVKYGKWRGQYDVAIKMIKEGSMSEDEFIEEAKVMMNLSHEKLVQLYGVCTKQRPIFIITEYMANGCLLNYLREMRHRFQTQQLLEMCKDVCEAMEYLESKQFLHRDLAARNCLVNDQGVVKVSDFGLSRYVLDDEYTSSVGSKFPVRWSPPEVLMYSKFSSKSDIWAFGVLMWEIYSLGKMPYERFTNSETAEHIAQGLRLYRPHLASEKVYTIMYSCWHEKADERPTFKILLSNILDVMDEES
Procedure, shortened: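 Method A: TR-FRET with 0.5 nM Btk at [ATP]=Km, EDTA-quenched, 665/615 nm ratio; Ki(app) converted to IC50. Method B: 1 nM full-length His6 human BTK, 1 μM FAM peptide, pH 7.5, mobility-shift product/sum ratio, 12-point 4-parameter fit. Method C: radiometric filter binding, 8 nM His-tagged BTK, 0.2 mg/mL poly-Glu-Tyr.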

[4] = wild-type Btk, read-out: Btk-WT IC50
[5] = method is one of A, B or C, not stated which, read-out: IC50 values against Btk

| pIC50 [1] | TEC/Btk [1] | pIC50 [2] | pIC50 [3, 4] | pIC50 [3, 5] | SMILES |
| --- | --- | --- | --- | --- | --- |
| 5.41 |  | 5.76 | 8.16 |  | CC(C)c1nc(C(=O)NCc2ccc(-c3ccnc4[nH]nc(N5CC[C@@H](N)C5)c34)cc2F)no1 [Example 370, N-[(4-{3-[(3R)-3-aminopyrrolidin-1-yl]-1H-pyrazolo[3,4-b]pyridin-4-yl}-2-fluorophenyl)methyl]-5-(propan-2-yl)-1,2,4-oxadiazole-3-carboxamide] |
| 6.47 | 605 | 6.80 | 9.25 |  | C=CC(=O)N1CCC(Cc2n[nH]c3nccc(-c4ccc(CNC(=O)c5noc(C(C)(C)C)n5)c(F)c4)c23)C1 (stereo not shown) [Example 275, 5-tert-butyl-N-{[2-fluoro-4-(3-{[1-(prop-2-enoyl)pyrrolidin-3-yl]methyl}-1H-pyrazolo[3,4-b]pyridin-4-yl)phenyl]methyl}-1,2,4-oxadiazole-3-carboxamide] |
| 6.93 |  | 7.05 | 8.84 |  | C=CC(=O)N1CC[C@@H](Nc2n[nH]c3nccc(-c4ccc(CNC(=O)c5cc(C(C)(C)O)on5)c(F)c4)c23)C1 [Example 294, N-{[2-fluoro-4-(3-{[(3R)-1-(prop-2-enoyl)pyrrolidin-3-yl]amino}-1H-pyrazolo[3,4-b]pyridin-4-yl)phenyl]methyl}-5-(2-hydroxypropan-2-yl)-1,2-oxazole-3-carboxamide] |
| 7.24 | 440 | 7.12 | 9.89 | > 8.00 | C=CC(=O)N1CC[C@@H](Nc2n[nH]c3nccc(-c4ccc(CNC(=O)c5cnn(C(C)(C)C)c5)c(F)c4)c23)C1 [Example 80, 1-tert-butyl-N-{[2-fluoro-4-(3-{[(3R)-1-(prop-2-enoyl)pyrrolidin-3-yl]amino}-1H-pyrazolo[3,4-b]pyridin-4-yl)phenyl]methyl}-1H-pyrazole-4-carboxamide] |
| 5.41 | 384 | 5.42 | 8.00 |  | C[C@H]1CC[C@@H](Nc2n[nH]c3nccc(-c4ccc(CN5CCn6c(cc7c6CC(C)(C)C7)C5=O)c(F)c4)c23)CN1C(=O)N(C)C [Example 239, (2S,5R)-5-[(4-{4-[(7,7-dimethyl-1-oxo-1,3,4,6,7,8-hexahydro-2H-cyclopenta[4,5]pyrrolo[1,2-a]pyrazin-2-yl)methyl]-3-fluorophenyl}-1H-pyrazolo[3,4-b]pyridin-3-yl)amino]-N,N,2-trimethylpiperidine-1-carboxamide] |
| 5.42 | 322 | 5.48 | 7.93 |  | CC(C)(C)c1nc(C(=O)NCc2ccc(-c3ccnc4[nH]nc(N[C@H]5CCN(C=O)C5)c34)cc2F)no1 [Example 93, 5-tert-butyl-N-{[2-fluoro-4-(3-{[(3S)-1-formylpyrrolidin-3-yl]amino}-1H-pyrazolo[3,4-b]pyridin-4-yl)phenyl]methyl}-1,2,4-oxadiazole-3-carboxamide] |

The remaining lines, values behind:

| SMILES | pIC50 [1] | TEC/Btk [1] | pIC50 [2] | pIC50 [3, 4] | pIC50 [3, 5] |
| --- | --- | --- | --- | --- | --- |
| CC1(C(=O)N2CC[C@H](Nc3n[nH]c4nccc(-c5ccc(CNC(=O)c6noc(C(C)(C)C)n6)c(F)c5)c34)C2)COC1 [Example 94, 5-tert-butyl-N-{[2-fluoro-4-(3-{[(3S)-1-(3-methyloxetane-3-carbonyl)pyrrolidin-3-yl]amino}-1H-pyrazolo[3,4-b]pyridin-4-yl)phenyl]methyl}-1,2,4-oxadiazole-3-carboxamide] | < 5.00 | >100 | < 5.00 | 7.60 |  |
| CC(C)(C)c1nc(C(=O)NCc2ccc(-c3ccnc4[nH]nc(N[C@@H]5CCNC5)c34)cc2F)co1 [Example 180, 2-tert-butyl-N-{[2-fluoro-4-(3-{[(3R)-pyrrolidin-3-yl]amino}-1H-pyrazolo[3,4-b]pyridin-4-yl)phenyl]methyl}-1,3-oxazole-4-carboxamide] | 5.14 | 302 | < 5.00 | 7.62 |  |
| CC(=O)N1CCC[C@H](Nc2n[nH]c3nccc(-c4ccc(CNC(=O)c5nc(C(C)(C)C)no5)c(F)c4)c23)C1 [Example 168, N-{[4-(3-{[(3S)-1-acetylpiperidin-3-yl]amino}-1H-pyrazolo[3,4-b]pyridin-4-yl)-2-fluorophenyl]methyl}-3-tert-butyl-1,2,4-oxadiazole-5-carboxamide] | < 5.00 | >100 | < 5.00 | 7.39 |  |
| C=CC(=O)N1CCC(c2n[nH]c3nccc(-c4ccc(CNC(=O)c5noc(C(C)(C)C)n5)c(F)c4)c23)C1 (stereo not shown) [Example 279, 5-tert-butyl-N-[(2-fluoro-4-{3-[1-(prop-2-enoyl)pyrrolidin-3-yl]-1H-pyrazolo[3,4-b]pyridin-4-yl}phenyl)methyl]-1,2,4-oxadiazole-3-carboxamide] | 7.83 | 162 | 8.05 | 10.04 |  |
| CC(C)(C)c1ccc(C(=O)NCc2cc(F)cc(-c3ccnc4[nH]nc(N[C@@H]5CCNC5)c34)c2)cc1 [Example 75, 4-tert-butyl-N-{[3-fluoro-5-(3-{[(3R)-pyrrolidin-3-yl]amino}-1H-pyrazolo[3,4-b]pyridin-4-yl)phenyl]methyl}benzamide] | < 5.00 |  | < 5.00 | < 5.00 |  |
| CC1(C)Cc2cc(C(=O)NCc3ccc(-c4ccnc5[nH]nc(N[C@@H]6CCNC6)c45)cc3F)[nH]c2C1 [Example 149, N-{[2-fluoro-4-(3-{[(3R)-pyrrolidin-3-yl]amino}-1H-pyrazolo[3,4-b]pyridin-4-yl)phenyl]methyl}-5,5-dimethyl-1H,4H,5H,6H-cyclopenta[b]pyrrole-2-carboxamide] | < 5.00 | >100 | < 5.00 | 6.13 |  |
| CN(C)C(=O)N1CC[C@@H](Nc2n[nH]c3nccc(-c4ccc(CNC(=O)c5coc(C(C)(C)C)n5)c(F)c4)c23)C1 [Example 296, 2-tert-butyl-N-{[4-(3-{[(3R)-1-(dimethylcarbamoyl)pyrroli-din-3-yl]amino}-1H-pyrazolo[3,4-b]pyridin-4-yl)-2-fluorophenyl]methyl}-1,3-oxazole-4-carboxamide] | 5.78 |  | 5.33 | 8.05 |  |
| CC(C)(C#N)c1cc(C(=O)NCc2ccc(-c3ccnc4[nH]nc(N5CC[C@@H](N)C5)c34)cc2F)no1 [Example 401, N-[(4-{3-[(3R)-3-aminopyrrolidin-1-yl]-1H-pyrazolo[3,4-b]pyridin-4-yl}-2-fluorophenyl)methyl]-5-(2-cyanopropan-2-yl)-1,2-oxazole-3-carboxamide] | 5.89 |  | 6.05 | 7.47 |  |
| C=CC(=O)N1CC[C@@H](Nc2n[nH]c3nccc(-c4ccc(CNC(=O)c5ccc(C(=C)C)cc5)c(F)c4)c23)C1 [Compound 47, (R)—N-(4-(3-((1-acryloylpyrrolidin-3-yl)amino)-1H-pyrazolo[3,4-b]pyridin-4-yl)-2-fluorobenzyl)-4-(prop-1-en-2-yl)benzamide] | 5.53 | 4 | 5.74 | 6.17 |  |
| CN(C)C(=O)N1CC[C@@H](Nc2n[nH]c3nccc(-c4ccc(CNC(=O)c5nc(C(C)(C)C)no5)c(F)c4)c23)C1 [Example 120, 3-tert-butyl-N-{[4-(3-{[(3R)-1-(dimethylcarbmoyl)pyrrolidin-3-yl]amino}-1H-pyrazolo[3,4-b]pyridin-4-yl)-2-fluorophenyl]methyl}-1,2,4-oxadiazole-5-carboxamide] | 5.15 | 965 | 5.28 | 8.13 | > 8.00 |
